The source of these data is US9499523B2, “Phosphatidylinositol 3-kinase inhibitors” (Gilead Sciences, Inc., priority 2014, dated 2016).

Test [1] has as its target PI3Kβ (Homo sapiens (Human), UniProt P42338). The test is described as follows: TR-FRET enzymatic assay of PI3K isoforms, PI3Kβ. Format: biochemical. Conditions: for PI3Kγ/PI3Kβ ratio: ratio of IC50 values, selectivity for PI3Kβ over PI3Kγ; for IC50: TR-FRET, 2×Km ATP, 30 minutes at 25° C. For orientation: In TR-FRET formats the signal depends on donor and acceptor labels being close together.
Procedure: (§1) The compounds of formula (I) were characterized for their enzymatic activity against the PI3K isoforms. The activities were measured using a time-resolved fluorescence resonance energy transfer (TR-FRET) assay. TR-FRET monitored the formation of 3,4,5-inositol triphosphate molecule that competed with fluorescently labeled PIP3 for binding to the GRP-1 pleckstrin homology domain protein.
(§2) Class I PI3K isoforms were expressed and purified as heterodimeric recombinant proteins. All assay reagents and buffers for the TR-FRET assay were purchased from Millipore. […] The reactions were terminated with a final concentration of 10 mM EDTA, 10 nM labeled-PIP3, and 35 nM Europium labeled GRP-1 detector protein before reading TR-FRET on an Envision plate reader (Ex: 340 nm; Em: 615/665 nm; 100 μs delay and 500 μs read window).
(§3) The results were normalized based on positive (1 μM wortmanin) and negative (DMSO) controls, and the IC50 values for PI3K α, β, δ and γ were calculated from the fit of the dose-response curves to a four-parameter equation.

Test [2] concerns the target PI3Kγ (Homo sapiens (Human), UniProt P48736). Put plainly: TR-FRET enzymatic assay of PI3K isoforms, PI3Kγ. Format: biochemical. Conditions: 2×Km ATP, PI3Kγ at 2 nM, 30 minutes at 25° C.
Procedure: as §1, §2, §3
Test [3] deals with PI3Kδ (Homo sapiens (Human), UniProt O00329). Put plainly: TR-FRET enzymatic assay of PI3K isoforms, PI3Kδ. The conditions noted are these: read-out: PI3Kδ IC50, 2×Km ATP, 30 minutes at 25° C.
Chain of PI3Kδ (O00329 whole entry, canonical isoform): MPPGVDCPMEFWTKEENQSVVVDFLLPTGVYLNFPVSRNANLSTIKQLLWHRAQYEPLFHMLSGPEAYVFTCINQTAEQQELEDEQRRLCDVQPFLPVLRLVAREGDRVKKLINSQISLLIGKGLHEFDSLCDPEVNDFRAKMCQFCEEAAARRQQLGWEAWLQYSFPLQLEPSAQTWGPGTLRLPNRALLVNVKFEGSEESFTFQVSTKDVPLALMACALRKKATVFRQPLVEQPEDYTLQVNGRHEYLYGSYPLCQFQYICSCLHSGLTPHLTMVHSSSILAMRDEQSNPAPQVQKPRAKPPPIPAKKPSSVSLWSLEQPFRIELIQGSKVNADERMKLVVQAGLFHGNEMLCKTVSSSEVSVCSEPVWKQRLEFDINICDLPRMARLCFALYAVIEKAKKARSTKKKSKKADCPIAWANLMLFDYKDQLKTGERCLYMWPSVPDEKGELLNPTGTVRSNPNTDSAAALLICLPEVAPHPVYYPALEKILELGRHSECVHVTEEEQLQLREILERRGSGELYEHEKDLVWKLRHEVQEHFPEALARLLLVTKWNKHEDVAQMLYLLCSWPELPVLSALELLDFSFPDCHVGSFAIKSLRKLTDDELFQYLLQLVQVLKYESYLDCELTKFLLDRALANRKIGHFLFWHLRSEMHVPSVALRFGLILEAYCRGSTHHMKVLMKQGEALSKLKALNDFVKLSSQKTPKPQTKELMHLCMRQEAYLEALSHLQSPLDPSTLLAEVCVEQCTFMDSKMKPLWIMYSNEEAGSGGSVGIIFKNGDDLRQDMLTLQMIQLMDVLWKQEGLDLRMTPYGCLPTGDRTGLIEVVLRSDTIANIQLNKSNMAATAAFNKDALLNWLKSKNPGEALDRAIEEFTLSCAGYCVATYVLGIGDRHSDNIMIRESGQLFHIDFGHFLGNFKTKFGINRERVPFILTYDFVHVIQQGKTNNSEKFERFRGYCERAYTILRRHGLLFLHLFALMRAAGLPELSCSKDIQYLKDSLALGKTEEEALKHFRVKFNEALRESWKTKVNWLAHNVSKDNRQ
Chain of PI3Kδ (P27986 whole entry partner, canonical isoform): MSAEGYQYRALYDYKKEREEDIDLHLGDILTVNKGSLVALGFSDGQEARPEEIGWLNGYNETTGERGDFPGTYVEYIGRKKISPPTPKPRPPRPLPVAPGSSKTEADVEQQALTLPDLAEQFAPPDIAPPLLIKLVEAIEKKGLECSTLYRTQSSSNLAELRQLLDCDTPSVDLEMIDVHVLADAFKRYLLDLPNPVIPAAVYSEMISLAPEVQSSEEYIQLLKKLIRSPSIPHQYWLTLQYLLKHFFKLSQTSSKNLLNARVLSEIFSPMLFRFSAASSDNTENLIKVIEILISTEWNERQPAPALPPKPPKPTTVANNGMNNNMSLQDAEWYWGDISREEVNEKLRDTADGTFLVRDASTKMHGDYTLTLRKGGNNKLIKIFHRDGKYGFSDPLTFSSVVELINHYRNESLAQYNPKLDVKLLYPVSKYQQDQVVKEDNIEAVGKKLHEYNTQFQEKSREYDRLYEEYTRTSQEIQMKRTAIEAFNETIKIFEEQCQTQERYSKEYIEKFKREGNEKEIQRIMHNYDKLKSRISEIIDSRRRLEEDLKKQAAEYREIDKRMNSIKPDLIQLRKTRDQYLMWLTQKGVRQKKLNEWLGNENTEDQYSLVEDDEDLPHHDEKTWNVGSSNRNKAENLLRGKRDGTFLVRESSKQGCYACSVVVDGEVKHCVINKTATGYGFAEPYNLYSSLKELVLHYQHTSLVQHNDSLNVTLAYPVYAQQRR
Procedure: as §1, §2, §3

Chain of PI3Kγ (P48736 whole entry, canonical isoform): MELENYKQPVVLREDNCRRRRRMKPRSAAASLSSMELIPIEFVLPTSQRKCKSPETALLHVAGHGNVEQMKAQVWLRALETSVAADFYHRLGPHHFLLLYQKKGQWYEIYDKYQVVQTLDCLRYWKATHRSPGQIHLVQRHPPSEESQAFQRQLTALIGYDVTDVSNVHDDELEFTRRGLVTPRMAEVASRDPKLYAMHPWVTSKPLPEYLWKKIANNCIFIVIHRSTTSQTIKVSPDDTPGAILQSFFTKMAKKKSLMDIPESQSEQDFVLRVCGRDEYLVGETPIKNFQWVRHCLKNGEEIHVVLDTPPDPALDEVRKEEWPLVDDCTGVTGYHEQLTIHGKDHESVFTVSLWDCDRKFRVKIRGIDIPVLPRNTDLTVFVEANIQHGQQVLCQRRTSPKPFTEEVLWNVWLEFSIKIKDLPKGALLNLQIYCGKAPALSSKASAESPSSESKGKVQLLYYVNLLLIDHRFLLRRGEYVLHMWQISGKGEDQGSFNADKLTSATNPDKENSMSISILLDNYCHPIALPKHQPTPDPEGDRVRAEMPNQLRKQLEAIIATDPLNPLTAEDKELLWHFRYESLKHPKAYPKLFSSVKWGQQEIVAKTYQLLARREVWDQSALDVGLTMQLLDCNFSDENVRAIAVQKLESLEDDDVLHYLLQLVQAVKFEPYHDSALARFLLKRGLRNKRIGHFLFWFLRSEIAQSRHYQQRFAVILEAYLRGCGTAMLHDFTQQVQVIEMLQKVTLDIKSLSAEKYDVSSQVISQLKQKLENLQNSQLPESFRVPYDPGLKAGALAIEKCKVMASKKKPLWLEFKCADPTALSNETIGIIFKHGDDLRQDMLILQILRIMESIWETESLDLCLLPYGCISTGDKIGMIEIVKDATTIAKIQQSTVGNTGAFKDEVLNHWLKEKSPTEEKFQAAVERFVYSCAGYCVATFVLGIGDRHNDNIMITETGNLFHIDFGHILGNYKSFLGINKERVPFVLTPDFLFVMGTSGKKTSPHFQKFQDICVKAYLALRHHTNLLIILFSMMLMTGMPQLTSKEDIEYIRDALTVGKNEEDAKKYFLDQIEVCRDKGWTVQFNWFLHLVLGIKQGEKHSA
Chain of PI3Kβ (P42338 whole entry, canonical isoform): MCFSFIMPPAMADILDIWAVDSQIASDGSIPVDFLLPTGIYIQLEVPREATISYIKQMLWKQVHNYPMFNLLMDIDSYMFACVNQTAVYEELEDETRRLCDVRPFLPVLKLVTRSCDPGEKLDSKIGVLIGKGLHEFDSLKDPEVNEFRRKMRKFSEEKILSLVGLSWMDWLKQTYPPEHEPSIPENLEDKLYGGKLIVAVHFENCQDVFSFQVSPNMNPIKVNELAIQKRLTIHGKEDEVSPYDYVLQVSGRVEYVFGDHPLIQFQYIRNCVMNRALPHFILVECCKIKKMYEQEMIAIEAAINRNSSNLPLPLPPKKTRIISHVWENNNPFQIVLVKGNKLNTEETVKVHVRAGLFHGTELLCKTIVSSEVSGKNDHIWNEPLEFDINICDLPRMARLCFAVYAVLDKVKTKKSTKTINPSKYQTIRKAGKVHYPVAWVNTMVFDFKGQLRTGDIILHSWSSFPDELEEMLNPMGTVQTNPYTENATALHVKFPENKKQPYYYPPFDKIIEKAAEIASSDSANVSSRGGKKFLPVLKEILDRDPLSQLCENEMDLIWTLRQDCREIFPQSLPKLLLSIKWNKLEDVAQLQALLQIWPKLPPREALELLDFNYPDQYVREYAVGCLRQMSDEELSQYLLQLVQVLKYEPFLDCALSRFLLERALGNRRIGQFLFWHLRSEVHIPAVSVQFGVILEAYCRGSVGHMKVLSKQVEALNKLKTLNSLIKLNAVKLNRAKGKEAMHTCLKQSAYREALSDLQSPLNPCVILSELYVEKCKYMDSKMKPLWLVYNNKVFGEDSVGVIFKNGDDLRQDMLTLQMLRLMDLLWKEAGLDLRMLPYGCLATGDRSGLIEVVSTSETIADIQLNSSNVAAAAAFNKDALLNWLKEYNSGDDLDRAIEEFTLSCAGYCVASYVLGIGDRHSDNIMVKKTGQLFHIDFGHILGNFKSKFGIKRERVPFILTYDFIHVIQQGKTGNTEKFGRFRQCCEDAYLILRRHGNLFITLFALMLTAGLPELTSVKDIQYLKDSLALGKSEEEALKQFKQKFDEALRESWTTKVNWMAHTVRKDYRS
Chain of PI3Kβ (P27986 whole entry partner, canonical isoform): as the sequence (P27986 whole entry partner, canonical isoform) above

`C[C@H](Nc1nc(N)nc(N)c1C#N)c1nc2cccc(Cl)c2c(=O)n1-c1ccccc1` [(S)-2,4-diamino-6-((1-(5-chloro-4-oxo-3-phenyl-3,4-dihydroquinazolin-2-yl)ethyl)amino)pyrimidine-5-carbonitrile, reference compound]: the PI3Kγ/PI3Kβ ratio entry in test [1] is “less than 1”.

In general, IC50 refers to the concentration that inhibits the measured activity by half. For `C[C@H](Nc1nc(N)nc(N)c1Cl)c1nc2c(F)ccc(Cl)c2c(=O)n1-c1cnc(N)cn1` [Compound 1, (S)-3-(5-aminopyrazin-2-yl)-5-chlor-2-(1-((2,6-diamino-5-chloropyrimidin-4-yl)amino)ethyl)-8-fluoroquinazolin-4(3H)-one], the values for the IC50 in test [1] and in test [2] were 54 nM and more than 10000 nM, respectively.

In the case of `C[C@H](Nc1nc(N)nc(N)c1C#N)c1nc2c(F)ccc(Cl)c2c(=O)n1-c1cnc(N)cn1` [Compound 2, (S)-2,4-diamino-6-((1-(3-(5-aminopyrazin-2-yl)-5-chloro-8-fluoro-4-oxo-3,4-dihydroquinazolin-2-yl)ethyl)amino)pyrimidine-5-carbonitrile], the IC50 in test [3] was 3.5 nM; in test [1], 4.4 nM; in test [2], 630 nM.

On to `C[C@H](Nc1ncnc(N)c1C#N)c1nc2c(F)ccc(Cl)c2c(=O)n1-c1cnc(N)cn1` [Compound 3, (S)-4-amino-6-((1-(3-(5-aminopyrazin-2-yl)-5-chloro-8-fluoro-4-oxo-3,4-dihydroquinazolin-2-yl)ethyl)amino)pyrimidine-5-carbonitrile], for which the IC50 was 11 nM in test [3], 74 nM in test [1] and more than 10000 nM in test [2].

With `C[C@H](Nc1ncnc2[nH]nnc12)c1nc2c(F)cccc2c(=O)n1-c1cnc(N)cn1` [Compound 4, (S)-2-(1-((3H-[1,2,3]triazolo[4,5-d]pyrimidin-7-yl)amino)ethyl)-3-(5-aminopyrazin-2-yl)-8-fluoroquinazolin-4(3H)-one], the figures for the IC50 in test [3], in test [1] and in test [2] were 2700 nM, more than 10000 nM and more than 10000 nM, respectively.

As to `C[C@H](Nc1ncnc2occc12)c1nc2c(F)ccc(Cl)c2c(=O)n1-c1cnc(N)cn1` [Compound 5, (S)-3-(5-amninopyrazin-2-yl)-5-chloro-8-fluoro-2-(1-(furo[2,3-d]pyrimidin-4-ylamino)ethyl)quinazolin-4(3H)-one], the IC50 in test [3] was 2300 nM; in test [1], 5800 nM; in test [2], more than 10000 nM.

Consider `C[C@H](Nc1nc(N)nc(N)c1C#N)c1nc2cccc(Cl)c2c(=O)n1-c1cnc(N)cn1` [Compound 6, (S)-2,4-diamino-6-((1-(3-(5-aminopyrazin-2-yl)-5-chloro-4-oxo-3,4-dihydroquinazolin-2-yl)ethyl)amino)pyrimidine-5-carbonitrile], for which the IC50 in test [3] was determined as 2 nM; in test [1], 2 nM; in test [2] it was 280 nM.

Consider `C[C@H](Nc1nc(N)nc(N)c1Cl)c1nc2cccc(Cl)c2c(=O)n1-c1cnc(N)cn1` [Compound 7, (S)-3-(5-aminopyrazin-2-yl)-5-chloro-2-(1-((2,6-diamino-5-chloropyrimidin-4-yl)amino)ethyl)quinazolin-4(3H)-one], for which the IC50 in test [3] is 24 nM; in test [1] it was 47 nM; in test [2] it was 4000 nM.

As for `Nc1cnc(-n2c([C@@H](Nc3nc(N)nc(N)c3Cl)C3CC3)nc3cccc(Cl)c3c2=O)cn1` [Compound 8, (S)-3-(5-aminopyrazin-2-yl)-5-chloro-2-(cyclopropyl((2,6-diamino-5-chloropyrimidin-4-yl)amino)methyl)quinazolin-4(3H)-one], the figures for the IC50 in test [3], in test [1] and in test [2] were 24 nM, 190 nM and more than 10000 nM, respectively.

With `N#Cc1c(N)nc(N)nc1N[C@H](c1nc2cccc(Cl)c2c(=O)n1-c1cnc(N)cn1)C1CC1` [Compound 9], the IC50 in test [3] is 2.7 nM; in test [1] it was 4.2 nM; in test [2], 900 nM.

Consider `N#Cc1c(N)nc(N)nc1N[C@H](c1nc2c(Cl)ccc(Cl)c2c(=O)n1-c1cnc(N)cn1)C1CC1` [Compound 10, (S)-2,4-diamino-6-(((3-(5-aminopyrazin-2-yl)-5,8-dichloro-4-oxo-3,4-dihydroquinazolin-2-yl)(cyclopropyl)methyl)amino)pyrimidine-5-carbonitrile], for which the IC50 in test [3] came to 2.4 nM; in test [1], 3.6 nM; in test [2], 3100 nM.

In the case of `C[C@H](Nc1nc(N)nc(N)c1C#N)c1nc2c(Cl)ccc(Cl)c2c(=O)n1-c1cnc(N)cn1` [Compound 11, (S)-2,4-diamino-6-((1-(3-(5-aminopyrazin-2-yl)-5,8-dichloro-4-oxo-3,4-dihydroquinazolin-2-yl)ethyl)amino)pyrimidine-5-carbonitrile], the half-maximal inhibitory concentration (IC50) in test [3] amounted to 1.9 nM; in test [1], 1.8 nM; in test [2] it was 1500 nM.

Consider `Nc1cnc(-n2c([C@@H](Nc3nc(N)nc(N)c3Cl)C3CC3)nc3c(Cl)ccc(Cl)c3c2=O)cn1` [Compound 12, (S)-3-(5-aminopyrazin-2-yl)-5,8-dichloro-2-(cyclopropyl((2,6-diamino-5-chloropyrimidin-4-yl)amino)methyl)quinazolin-4(3H)-one], for which the IC50 in test [3] was 97 nM; in test [1], 1200 nM; in test [2], more than 10000 nM.

For the compound `C[C@H](Nc1nc(N)nc(N)c1Cl)c1nc2c(Cl)ccc(Cl)c2c(=O)n1-c1cnc(N)cn1` [Compound 13, (S)-3-(5-aminopyrazin-2-yl)-5,8-dichloro-2-(1-((2,6-diamino-5-chloropyrimidin-4-yl)amino)ethyl)quinazolin-4(3H)-one], the IC50 in test [3] was 31 nM; in test [1], 170 nM; in test [2], more than 10000 nM.

Turning to `C[C@H](Nc1nc(N)nc(C(F)F)c1C#N)c1nc2c(Cl)cc(F)cc2c(=O)n1-c1cnc(N)cn1` [Compound 14, (S)-2-amino-4-((1-(3-(5-aminopyrazin-2-yl)-8-chloro-6-fluoro-4-oxo-3,4-dihydroquinazolin-2-yl)ethyl)amino)-6-(difluoromethyl)pyrimidine-5-carbonitrile], the figures for the IC50 in test [3], in test [1] and in test [2] were 340 nM, 200 nM and more than 10000 nM, respectively.

As for `C[C@H](Nc1nc(N)nc(N)c1C#N)c1nc2c(F)cc(F)cc2c(=O)n1-c1cnc(N)cn1` [Compound 15, (S)-2,4-Diamino-6-((1-(3-(5-aminopyrazin-2-yl)-6,8-difluoro-4-oxo-3,4-dihydroquinazolin-2-yl)ethyl)amino)pyrimidine-5-carbonitrile], the IC50 worked out at 53 nM in test [3], 9.8 nM in test [1] and 1500 nM in test [2].

For `C[C@H](Nc1nc(N)nc(N)c1C#N)c1nc2c(Cl)cc(F)cc2c(=O)n1-c1cnc(N)cn1` [Compound 17], the IC50 came out at 32 nM in test [3], 14 nM in test [1] and 4900 nM in test [2].

Regarding `Nc1cnc(-n2c([C@@H](Nc3ncnc(N)c3Cl)C3CC3)nc3cccc(Cl)c3c2=O)cn1` [Compound 21, (S)-2-(((6-Amino-5-chloropyrimidin-4-yl)amino)(cyclopropyl)methyl)-3-(5-aminopyrazin-2-yl)-5-chloroquinazolin-4(3H)-one], the IC50 in test [1] was 720 nM; in test [2], more than 10000 nM.

In the case of `C[C@H](Nc1nc(N)nc(N)c1C#N)c1nc2cccc(Cl)c2c(=O)n1-c1cccnc1` [Compound X, (S)-2,4-diamino-6-((1-(5-chloro-4-oxo-3-(pyridin-3-yl)-3,4-dihydroquinazolin-2-yl)ethyl)amino)pyrimidine-5-carbonitrile, reference compound], the PI3Kγ/PI3Kβ ratio in test [1] amounted to 0.6.
